From article PMC11340245, “Studies of Protein Binding to Biomimetic Membranes Using a Group of Uniform Materials Based on Organic Salts Derived From 8-Anilino-1-naphthalenesulfonic Acid” (Applied Spectroscopy, 2024)

Test: Thermal stability by thermogravimetric analysis (TGA)
Assay type: physicochemical
Settings: heated from 25 to 595 °C, ramp rate 10 °C min^–1
Protocol: The thermal stability of [N4444][ANS] and [P4444][ANS] was investigated using a TA Discovery TGA 550 instrument. GUMBOS were heated from 25 to 595 °C using a ramp rate of 10 °C min^–1. The melting points of these compounds were also determined using a MEL-TEMP apparatus. Membrane partition and competitive binding assays were performed on a BioTek Cytation 3 imaging reader.
Thermal behaviors of [N4444][ANS] and [P4444][ANS] GUMBOS were further investigated using TGA. Figure S14 and Table S2 (Supplemental Material) present the weight loss curves and temperatures at which GUMBOS weight was reduced by 50% (T50%), respectively.

T50% (half weight loss temperature)	Structure (SMILES)
308 ºC	CCCC[N+](CCCC)(CCCC)CCCC.O=S(=O)([O-])c1cccc2cccc(Nc3ccccc3)c12 [[N4444][ANS]]
422 ºC	CCCC[P+](CCCC)(CCCC)CCCC.O=S(=O)([O-])c1cccc2cccc(Nc3ccccc3)c12 [[P4444][ANS]]
